Reference: paper PMC6616128, “Liquiritin, as a Natural Inhibitor of AKR1C1, Could Interfere With the Progesterone Metabolism” (Frontiers in Physiology, 2019)
Read-outs that look alike come from different tables or passages of the source.

Target: T1, AKR1C1 (Homo sapiens, UniProt Q04828)
T1 sequence (Q04828 1-323): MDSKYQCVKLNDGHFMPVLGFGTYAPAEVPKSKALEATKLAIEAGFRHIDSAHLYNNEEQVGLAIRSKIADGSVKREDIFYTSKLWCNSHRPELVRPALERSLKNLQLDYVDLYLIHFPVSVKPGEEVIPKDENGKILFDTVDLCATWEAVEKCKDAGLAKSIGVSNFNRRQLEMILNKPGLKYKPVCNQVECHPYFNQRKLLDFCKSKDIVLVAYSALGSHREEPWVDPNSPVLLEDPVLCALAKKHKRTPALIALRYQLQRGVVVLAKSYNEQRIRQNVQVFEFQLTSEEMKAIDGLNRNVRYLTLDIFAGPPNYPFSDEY
Test: Enzyme activity (NADPH) assay with s-tetralol, recombinant GST-AKR1C1;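 also: GST-fused AKR1C1 expressed in E. coli and purified by glutathione affinity, control wells received DMSO instead of compound, duplicate samples from a single experiment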
Format: biochemical
Design: made in house; host or cells: Escherichia coli JM109
Conditions: for enzyme activity: CON 192.295568; for remaining activity at 2 µM: read-out: ratio (activity relative to CON)

[1] = 2 μM compound, Supplementary Table 1, CON 0.0122
[2] = 2 μM compound, Supplementary Table 1
[3] = 2 μM compound, Supplementary Table 1, CON = 1
[4] = 2 μM compound, Supplementary Table 1, read-out: % inhibition

Description: GST-tagged recombinant AKR1C isoforms expressed JM109 was grown in Luria-Bertani broth (100 μg⋅ml-1 ampicillin, pH = 7.0) at 37°C with orbital shaking at 220 rpm. When cells achieved an OD600 nm between 0.4 and 0.6, 0.3 mM final concentration of isopropyl β-D-1-thiogalactopyranoside (IPTG) was added to the cultures and incubated for an additional 12 h at 25°C. Cells were harvested by centrifugation at 8000 g for 10 min, and the cell pellets were stored at -80°C for storage. The pellets were resuspended in 1 × PBS, pH = 7.4 and lysed by ultrasonication at ice-cold temperature using an UH-03 union instrument. The purification of glutathione-S-transferase (GST)-fusion AKR1C1, AKR1C2, and AKR1C3 were then carried out using ÄKTA systems from GE Healthcare as described in Handbook. The recombinant proteins were eluted in 50 mM Tris–HCl (pH = 8.0) with 20 mM reduced glutathione, fresh preparedly. Protein concentrations were determined using the Bradford protein assay kit. All proteins were aliquoted and stored at -80°C containing 20% glycerol.
To screen for the indicated inhibitor, the assay mixture was added with additional DMSO or 2 μM compounds. […] The inhibition patterns were determined by fitting initial velocity and inhibitor concentration into inhibition models using Graphpad Prism 6.0. All inhibition data were obtained from single experiments, with samples conducted in duplicate.
Firstly, we overexpressed recombinant human AKR1C in E. coli in the form of a GST-fusion protein, and then purified it by affinity chromatography on glutathione-Sepharose.
To screen for the inhibitors of AKR1C1, we developed a readily accessible indirect NADPH generating-based assay that can be used for high-throughput inhibitors screening. […] Wells were included containing enzyme and no inhibitor or 2 μM inhibitor.

| slope [1] | enzyme activity [2] | remaining activity at 2 µM [3] | inhibition at 2 µM [4] | SMILES | % inhibition [2] | ratio (activity relative to CON) [3] | inhibition at 2 µM | slope | remaining activity at 2 µM |
| --- | --- | --- | --- | --- | --- | --- | --- | --- | --- |
| 0.009203 | 145.0548 nmol/min/mg | 75.4% | 24.6% | COc1cc2c(cc1CC=C(C)C)C(=O)C[C@@H](c1ccc(O)cc1)O2 [Bavachinin A] | – | – | – | – | – |
| 0.0114 | 180.2715 nmol/min/mg | 93.8% | 6.25% | O=C(/C=C/c1ccc(O)cc1)CC(=O)/C=C/c1ccc(O)cc1 [Bisdemethoxycurcumin] | – | – | – | – | – |
| 0.0116 | 183.0185 nmol/min/mg | 95.2% | 4.82% | COc1ccc(-c2coc3cc(O)ccc3c2=O)cc1O [Calycosin] | – | – | – | – | – |
| 0.007263 | 114.4767 nmol/min/mg | – | – | C=C1C(=O)O[C@@H]2/C=C(\C)CC/C=C(\C)CC[C@@H]12 [Costundide] | 40.47% | 0.5953 | – | – | – |
| 0.006283 | 99.03 nmol/min/mg | 51.5% | 48.5% | COc1cc(/C=C/C(=O)CC(=O)/C=C/c2ccc(O)c(OC)c2)ccc1O [Curcumin] | – | – | – | – | – |
| 0.007957 | 125.4199 nmol/min/mg | 65.2% | 34.8% | O=c1c(-c2ccc(O)cc2)coc2cc(O)ccc12 [Daidzein] | – | – | – | – | – |
| 0.0128 | 201.0772 nmol/min/mg | – | – | COc1cc(O)c2c(c1)C(=O)c1cc(C)cc(O)c1C2=O [Emodin-3-methyl ether] | -4.57% | 1.0457 | – | – | – |
| 0.0136 | 214.5874 nmol/min/mg | 112% | -11.6% | Oc1cc(O)c2c(c1)O[C@H](c1ccc(O)c(O)c1)[C@H](O)C2 [Epicatechin] | – | – | – | – | – |
| 0.0129 | 203.1488 nmol/min/mg | 106% | -5.64% | O=c1c(-c2ccc(O)cc2)coc2cc(O[C@@H]3O[C@H](CO)[C@@H](O)[C@H](O)[C@H]3O)cc(O)c12 [Genistin] | – | – | – | – | – |
| 0.008406 | 132.4903 nmol/min/mg | 68.9% | 31.1% | C[C@@H]1C(=O)O[C@H]2C[C@@]34[C@H]5C[C@@H](C(C)(C)C)[C@]36[C@@H](OC(=O)[C@@H]6O)O[C@@]4(C(=O)O5)[C@]21O [Ginkgolide A] | – | – | – | – | – |
| 0.0136 | 215.1279 nmol/min/mg | 112% | -11.9% | CC1(C)C=Cc2c(ccc3c2OC[C@@H](c2ccc(O)cc2O)C3)O1 [Glabridin] | – | – | – | – | – |
| 0.0086 | 135.5526 nmol/min/mg | 70.5% | 29.5% | COc1cc2c(=O)c(-c3ccc(O)cc3)coc2cc1O [Glycitein] | – | – | – | – | – |
| 0.00436 | 68.722 nmol/min/mg | – | – | COc1cc2c(=O)c(-c3ccc(O)cc3)coc2cc1O[C@@H]1O[C@H](CO)[C@@H](O)[C@H](O)[C@H]1O [Glycitin] | 64.26% | 0.3574 | – | – | – |
| 0.0123 | 193.4665 nmol/min/mg | 101% | -0.61% | O=c1c(O[C@@H]2O[C@H](CO)[C@H](O)[C@H](O)[C@H]2O)c(-c2ccc(O)c(O)c2)oc2cc(O)cc(O)c12 [Hyperoside] | – | – | – | – | – |
| 0.0108 | 170.1838 nmol/min/mg | 88.5% | 11.5% | CC(C)=CCOc1c2ccoc2cc2oc(=O)ccc12 [Isoimperatorin] | – | – | – | – | – |
| 0.007797 | 122.898 nmol/min/mg | 63.9% | 36.1% | O=c1c(O[C@@H]2O[C@H](CO)[C@@H](O)[C@H](O)[C@H]2O)c(-c2ccc(O)c(O)c2)oc2cc(O)cc(O)c12 [Isoquercitrin] | – | – | – | – | – |
| 0.0115 | 181.9828 nmol/min/mg | 94.6% | 5.36% | COc1ccc(-c2oc3cc(O)cc(O)c3c(=O)c2O)cc1 [Kaempferide] | – | – | – | – | – |

Further lines, the compound ahead of its results:

| SMILES | slope [1] | enzyme activity [2] | remaining activity at 2 µM [3] | inhibition at 2 µM [4] | % inhibition [2] | ratio (activity relative to CON) [3] | inhibition at 2 µM | slope | remaining activity at 2 µM |
| --- | --- | --- | --- | --- | --- | --- | --- | --- | --- |
| O=c1c(O)c(-c2ccccc2)oc2cc(O)cc(O)c12 [3,5,7-Trihydroxyflavone] | 0.00928 | 146.2707 nmol/min/mg | 76.1% | 23.9% | – | – | – | – | – |
| COc1c2ccoc2cc2oc(=O)ccc12 [5-Methoxypsoralen] | 0.0121 | 190.1339 nmol/min/mg | 98.9% | 1.12% | – | – | – | – | – |
| O=C(O[C@@H]1Cc2c(O)cc(O)cc2O[C@@H]1c1ccc(O)c(O)c1)c1cc(O)c(O)c(O)c1 [(−)-Epicatechin gallate] | 0.00702 | 110.6488 nmol/min/mg | – | – | 42.46% | 0.5754 | – | – | – |
| O=C(O[C@@H]1Cc2c(O)cc(O)cc2O[C@@H]1c1cc(O)c(O)c(O)c1)c1cc(O)c(O)c(O)c1 [(−)-Epigallocatechin gallate] | 0.0121 | 191.3949 nmol/min/mg | 99.5% | 0.47% | – | – | – | – | – |
| Oc1cc(O)c2c(c1)O[C@H](c1cc(O)c(O)c(O)c1)[C@H](O)C2 [(−)-Epigallocatechin] | 0.0131 | 206.076 nmol/min/mg | – | – | -7.17% | 1.0717 | – | – | – |
| C[C@@H]1O[C@@H](O[C@@H]2[C@@H](O)[C@H](OCCc3ccc(O)c(O)c3)O[C@H](CO)[C@H]2OC(=O)/C=C/c2ccc(O)c(O)c2)[C@H](O)[C@H](O)[C@H]1O [Acteoside] | 0.0123 | 194.5022 nmol/min/mg | 101% | -1.15% | – | – | – | – | – |
| C[C@]12C[C@@H](O)[C@@H]3C[C@@]1(O[C@@H]1O[C@H](CO)[C@@H](O)[C@H](O)[C@H]1O)[C@@]3(COC(=O)c1ccccc1)C(=O)O2 [Albiflorin] | 0.0129 | 202.8786 nmol/min/mg | – | – | -5.5% | 1.055 | – | – | – |
| COc1cc(C[C@H]2C(=O)OC[C@@H]2Cc2ccc(OC)c(OC)c2)ccc1O [Arctigenin] | 0.0129 | 203.0137 nmol/min/mg | 106% | -5.57% | – | – | – | – | – |
| O=c1c(O[C@@H]2O[C@H](CO)[C@@H](O)[C@H](O)[C@H]2O)c(-c2ccc(O)cc2)oc2cc(O)cc(O)c12 [Astragalin] | 0.007614 | 120.0159 nmol/min/mg | 62.4% | 37.6% | – | – | – | – | – |
| CC(C)(C)[C@]1(O)CC2OC(=O)CC23C(=O)OC2OC(=O)[C@H](O)C231 (some centres unmarked) [Bilobalide] | – | 120.151 nmol/min/mg | – | – | – | – | 37.5% | 0.007623 | 62.5% |
| O=c1c(-c2ccc(O)cc2)coc2cc(O[C@@H]3O[C@H](CO)[C@@H](O)[C@H](O)[C@H]3O)ccc12 [Daidzin] | 0.013 | 204.9952 nmol/min/mg | 107% | -6.6% | – | – | – | – | – |
| C[C@@H]1CC[C@@]2(OC1)O[C@H]1C[C@H]3[C@@H]4CC=C5C[C@@H](O[C@@H]6O[C@H](CO)[C@@H](O[C@@H]7O[C@@H](C)[C@H](O)[C@@H](O)[C@H]7O)[C@H](O)[C@H]6O[C@@H]6O[C@@H](C)[C@H](O)[C@@H](O)[C@H]6O)CC[C@]5(C)[C@H]4CC[C@]3(C)[C@H]1[C@@H]2C [Dioscin] | 0.0134 | 211.8854 nmol/min/mg | 110% | -10.2% | – | – | – | – | – |
| Oc1cc(O)c2c(c1)O[C@H](c1cc(O)c(O)c(O)c1)[C@H](O)C2 [Epigallocatechin] | 0.0131 | 206.6164 nmol/min/mg | 107% | -7.45% | – | – | – | – | – |
| COc1ccc2cc1Oc1ccc(cc1)C[C@H]1c3cc(c(OC)cc3CCN1C)Oc1c(O)c(OC)cc3c1[C@H](C2)N(C)CC3 [Fangchinoline] | 0.0139 | 219.4962 nmol/min/mg | 114% | -14.2% | – | – | – | – | – |
| CC(C)=CCC[C@](C)(O[C@@H]1O[C@H](CO)[C@@H](O)[C@H](O)[C@H]1O)[C@H]1CC[C@]2(C)[C@@H]1[C@H](O)C[C@@H]1[C@@]3(C)CC[C@H](O)C(C)(C)[C@@H]3CC[C@]12C [Ginsenoside CK] | 0.0123 | 193.3764 nmol/min/mg | – | – | -0.56% | 1.0056 | – | – | – |
| CC(C)=CCOc1c2occc2cc2ccc(=O)oc12 [Imperatorin] | 0.0117 | 184.7298 nmol/min/mg | 96.1% | 3.93% | – | – | – | – | – |
| COc1cc(-c2oc3cc(O)cc(O)c3c(=O)c2O)ccc1O [Isorhamnetin] | 0.0125 | 197.0241 nmol/min/mg | 102% | -2.46% | – | – | – | – | – |
| COc1cc2c(cc1O)CC[n+]1cc3c(OC)c(OC)ccc3cc1-2.[Cl-] [Jatrorrhizine Hydrochloride] | 0.0127 | 200.7169 nmol/min/mg | – | – | -4.38% | 1.0438 | – | – | – |
